# Results published in ChEMBL document CHEMBL5465560, “Selectivity Literature for EUbOPEN Chemogenomic Library” (2024).
# Legend:
# [1] = target: T1, cAMP-dependent protein kinase catalytic subunit PRKX (Homo sapiens) (UniProt P51817); settings: at 10 µM
# T1 sequence (whole entry): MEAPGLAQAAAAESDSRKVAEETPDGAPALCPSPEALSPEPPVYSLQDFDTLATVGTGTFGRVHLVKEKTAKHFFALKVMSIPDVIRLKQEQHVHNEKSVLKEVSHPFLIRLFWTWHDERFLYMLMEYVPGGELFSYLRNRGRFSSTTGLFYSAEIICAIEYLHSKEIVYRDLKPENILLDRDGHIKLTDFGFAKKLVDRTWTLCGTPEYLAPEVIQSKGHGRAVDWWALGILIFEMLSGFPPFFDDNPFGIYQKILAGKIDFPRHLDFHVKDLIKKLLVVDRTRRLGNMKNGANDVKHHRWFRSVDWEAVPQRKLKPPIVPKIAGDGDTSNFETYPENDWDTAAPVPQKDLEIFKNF
# [2] = target: Serine/threonine-protein kinase MRCK gamma (Homo sapiens) (UniProt Q6DT37); assay: Selectivity interaction (KinomeScan (DiscoverX)) EUB0000229b CDC42BPG; settings: at 10 µM
# Insulin receptor = Insulin receptor (Homo sapiens, UniProt P06213); assay: Selectivity interaction (KinomeScan (DiscoverX)) EUB0000655a INSR; settings: at 10 µM
# Sequence of Insulin receptor (P06213 28-758 limits assumed): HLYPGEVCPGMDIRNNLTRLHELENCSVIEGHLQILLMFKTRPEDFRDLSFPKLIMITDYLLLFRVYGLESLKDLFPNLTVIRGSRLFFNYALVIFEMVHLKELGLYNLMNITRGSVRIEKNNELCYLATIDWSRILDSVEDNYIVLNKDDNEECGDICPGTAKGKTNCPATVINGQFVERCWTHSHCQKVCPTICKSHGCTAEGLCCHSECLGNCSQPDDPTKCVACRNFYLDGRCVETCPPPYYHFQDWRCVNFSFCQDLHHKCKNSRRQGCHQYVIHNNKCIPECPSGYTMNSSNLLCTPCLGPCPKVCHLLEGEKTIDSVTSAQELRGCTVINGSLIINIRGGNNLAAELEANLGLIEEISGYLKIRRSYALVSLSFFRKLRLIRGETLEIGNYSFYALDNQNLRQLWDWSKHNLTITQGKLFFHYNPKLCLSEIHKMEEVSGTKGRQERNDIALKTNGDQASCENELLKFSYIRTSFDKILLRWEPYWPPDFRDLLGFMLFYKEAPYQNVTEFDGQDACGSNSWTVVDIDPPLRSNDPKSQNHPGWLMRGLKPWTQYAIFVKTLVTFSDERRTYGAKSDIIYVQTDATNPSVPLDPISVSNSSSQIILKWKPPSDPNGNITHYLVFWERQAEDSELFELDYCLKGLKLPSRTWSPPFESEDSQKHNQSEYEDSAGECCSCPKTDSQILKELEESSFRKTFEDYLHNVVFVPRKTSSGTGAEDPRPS
# Sequence of Insulin receptor (P06213 763-1382 limits assumed): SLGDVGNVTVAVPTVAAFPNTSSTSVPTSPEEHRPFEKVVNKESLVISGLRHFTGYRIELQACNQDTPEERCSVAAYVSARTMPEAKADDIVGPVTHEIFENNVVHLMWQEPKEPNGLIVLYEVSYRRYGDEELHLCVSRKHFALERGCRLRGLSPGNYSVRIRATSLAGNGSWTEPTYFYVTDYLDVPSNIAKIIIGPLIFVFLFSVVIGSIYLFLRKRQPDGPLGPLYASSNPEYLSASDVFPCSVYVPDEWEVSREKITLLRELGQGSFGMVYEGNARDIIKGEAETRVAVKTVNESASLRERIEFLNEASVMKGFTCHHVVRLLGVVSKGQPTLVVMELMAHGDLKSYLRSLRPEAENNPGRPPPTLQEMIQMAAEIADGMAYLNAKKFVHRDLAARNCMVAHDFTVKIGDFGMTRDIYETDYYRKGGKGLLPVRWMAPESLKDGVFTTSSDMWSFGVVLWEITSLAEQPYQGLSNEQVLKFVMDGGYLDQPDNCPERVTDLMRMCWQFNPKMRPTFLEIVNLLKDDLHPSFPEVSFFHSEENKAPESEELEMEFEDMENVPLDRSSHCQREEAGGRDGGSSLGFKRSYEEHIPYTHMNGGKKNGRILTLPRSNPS
# [3] = target: T2, Mitogen-activated protein kinase kinase kinase 7 (Homo sapiens) (UniProt O43318); assay: Selectivity interaction (KinomeScan (DiscoverX)) EUB0001079a MAP3K7; settings: at 1 µM
# T2 sequence (whole entry): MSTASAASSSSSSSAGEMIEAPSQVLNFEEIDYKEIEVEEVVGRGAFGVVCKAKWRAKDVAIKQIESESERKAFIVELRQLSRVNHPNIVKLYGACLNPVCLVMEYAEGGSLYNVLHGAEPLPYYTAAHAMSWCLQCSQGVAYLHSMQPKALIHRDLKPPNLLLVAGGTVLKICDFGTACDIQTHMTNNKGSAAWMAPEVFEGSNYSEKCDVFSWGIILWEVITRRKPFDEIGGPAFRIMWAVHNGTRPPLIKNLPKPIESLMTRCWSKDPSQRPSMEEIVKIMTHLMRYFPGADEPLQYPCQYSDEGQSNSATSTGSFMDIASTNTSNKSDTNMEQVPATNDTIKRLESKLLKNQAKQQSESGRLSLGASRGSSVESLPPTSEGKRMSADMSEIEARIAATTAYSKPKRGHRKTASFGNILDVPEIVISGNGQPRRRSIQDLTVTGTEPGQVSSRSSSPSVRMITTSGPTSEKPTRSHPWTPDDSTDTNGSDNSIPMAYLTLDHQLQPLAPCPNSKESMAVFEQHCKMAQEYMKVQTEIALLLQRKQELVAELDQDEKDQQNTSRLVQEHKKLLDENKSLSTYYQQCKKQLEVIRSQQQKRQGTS
# [4] = target: T3, Serine/threonine-protein kinase ICK (Homo sapiens) (UniProt Q9UPZ9); assay: Selectivity interaction (KinomeScan (DiscoverX)) EUB0000666a ICK; settings: at 10 µM
# T3 sequence (whole entry): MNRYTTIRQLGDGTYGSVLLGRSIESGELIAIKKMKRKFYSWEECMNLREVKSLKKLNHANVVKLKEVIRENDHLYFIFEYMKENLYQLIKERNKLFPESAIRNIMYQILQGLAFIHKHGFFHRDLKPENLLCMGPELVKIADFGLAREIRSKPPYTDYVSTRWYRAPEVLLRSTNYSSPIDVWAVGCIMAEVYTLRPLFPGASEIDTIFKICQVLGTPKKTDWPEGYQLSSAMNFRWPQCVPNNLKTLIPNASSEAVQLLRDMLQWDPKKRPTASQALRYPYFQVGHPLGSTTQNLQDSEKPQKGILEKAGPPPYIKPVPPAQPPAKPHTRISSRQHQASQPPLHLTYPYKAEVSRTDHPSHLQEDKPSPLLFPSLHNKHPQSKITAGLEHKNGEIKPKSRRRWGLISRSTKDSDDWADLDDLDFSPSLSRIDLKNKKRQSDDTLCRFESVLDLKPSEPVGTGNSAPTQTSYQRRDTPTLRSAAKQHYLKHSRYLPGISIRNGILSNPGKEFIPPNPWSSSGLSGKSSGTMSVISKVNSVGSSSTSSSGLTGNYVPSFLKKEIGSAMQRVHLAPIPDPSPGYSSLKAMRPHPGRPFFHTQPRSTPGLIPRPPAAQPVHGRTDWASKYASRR
# [5] = target: Protein kinase C alpha type (Homo sapiens, UniProt P17252); assay: Selectivity interaction (Kinase panel (33PanQinase(R) Activity Assay)) EUB0000877a PRKCA
# [6] = target: Serine/threonine-protein kinase B-raf (Homo sapiens) (UniProt P15056); assay: Selectivity interaction (Kinase panel (Invitrogen)) EUB0000639a BRAF; settings: at 200 nM
# [7] = target: Phosphatidylinositol 4,5-bisphosphate 3-kinase catalytic subunit beta isoform (Homo sapiens) (UniProt P42338); assay: Selectivity interaction (KinomeScan (DiscoverX)) EUB0000607a PIK3CB; settings: at 10 µM
# Sequence of Phosphatidylinositol 4,5-bisphosphate 3-kinase catalytic subunit beta isoform (Homo sapiens) (P42338 whole entry, looked up, canonical isoform): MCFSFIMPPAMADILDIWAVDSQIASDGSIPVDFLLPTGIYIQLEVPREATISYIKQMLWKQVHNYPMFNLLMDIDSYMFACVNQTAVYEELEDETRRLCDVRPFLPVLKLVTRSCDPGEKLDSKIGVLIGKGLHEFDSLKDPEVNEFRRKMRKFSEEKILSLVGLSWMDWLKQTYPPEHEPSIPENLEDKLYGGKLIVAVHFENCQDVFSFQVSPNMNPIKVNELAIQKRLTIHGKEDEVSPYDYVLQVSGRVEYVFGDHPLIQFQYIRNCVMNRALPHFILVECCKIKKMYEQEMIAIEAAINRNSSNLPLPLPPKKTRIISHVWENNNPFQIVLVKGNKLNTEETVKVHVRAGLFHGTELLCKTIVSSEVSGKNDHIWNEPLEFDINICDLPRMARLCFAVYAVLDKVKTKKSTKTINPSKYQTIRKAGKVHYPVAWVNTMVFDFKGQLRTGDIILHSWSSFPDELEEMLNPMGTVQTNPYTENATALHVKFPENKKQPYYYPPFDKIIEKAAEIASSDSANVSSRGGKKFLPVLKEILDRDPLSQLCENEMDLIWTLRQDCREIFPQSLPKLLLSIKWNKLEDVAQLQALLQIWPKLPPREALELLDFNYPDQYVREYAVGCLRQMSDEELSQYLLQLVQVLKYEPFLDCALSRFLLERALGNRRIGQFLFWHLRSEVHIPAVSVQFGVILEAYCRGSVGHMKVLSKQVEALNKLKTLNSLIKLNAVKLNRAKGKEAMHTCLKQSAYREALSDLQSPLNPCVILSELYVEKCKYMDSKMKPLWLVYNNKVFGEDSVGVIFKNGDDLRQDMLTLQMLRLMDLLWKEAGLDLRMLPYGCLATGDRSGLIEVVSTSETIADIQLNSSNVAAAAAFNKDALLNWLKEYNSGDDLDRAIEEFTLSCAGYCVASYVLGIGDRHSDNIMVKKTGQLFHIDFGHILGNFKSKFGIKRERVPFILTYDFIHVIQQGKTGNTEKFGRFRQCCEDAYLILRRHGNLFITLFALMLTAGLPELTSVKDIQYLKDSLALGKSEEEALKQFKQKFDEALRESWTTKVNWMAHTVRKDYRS
# [8] = target: T4, Dual specificity mitogen-activated protein kinase kinase 5 (Homo sapiens) (UniProt Q13163); assay: Selectivity interaction (KinomeScan (DiscoverX)) EUB0000595a MAP2K5; settings: at 10 µM
# T4 sequence (whole entry): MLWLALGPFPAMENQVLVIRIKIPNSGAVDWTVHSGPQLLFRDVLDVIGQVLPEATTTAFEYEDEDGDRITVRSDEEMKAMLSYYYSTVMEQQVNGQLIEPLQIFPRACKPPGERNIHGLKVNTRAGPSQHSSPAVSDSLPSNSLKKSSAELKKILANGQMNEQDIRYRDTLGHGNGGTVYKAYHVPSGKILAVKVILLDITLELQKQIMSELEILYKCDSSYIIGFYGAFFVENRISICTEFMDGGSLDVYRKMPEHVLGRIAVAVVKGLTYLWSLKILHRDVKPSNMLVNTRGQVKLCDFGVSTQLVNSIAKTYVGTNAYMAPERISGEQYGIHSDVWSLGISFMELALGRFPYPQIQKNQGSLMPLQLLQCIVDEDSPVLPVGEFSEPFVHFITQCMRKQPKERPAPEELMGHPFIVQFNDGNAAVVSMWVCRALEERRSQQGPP
# [9] = system: Hepatocyte growth factor receptor (Homo sapiens), P08581 [M1250T]; assay: (§1) Selectivity interaction (Ambit KINOMEscan and KiNATiv profiling in Jurkat cells) EUB0000090b MET; format: cell-based; settings: at 1 µM
# Sequence of Hepatocyte growth factor receptor (Homo sapiens), P08581 [M1250T] (P08581 whole entry M1250T): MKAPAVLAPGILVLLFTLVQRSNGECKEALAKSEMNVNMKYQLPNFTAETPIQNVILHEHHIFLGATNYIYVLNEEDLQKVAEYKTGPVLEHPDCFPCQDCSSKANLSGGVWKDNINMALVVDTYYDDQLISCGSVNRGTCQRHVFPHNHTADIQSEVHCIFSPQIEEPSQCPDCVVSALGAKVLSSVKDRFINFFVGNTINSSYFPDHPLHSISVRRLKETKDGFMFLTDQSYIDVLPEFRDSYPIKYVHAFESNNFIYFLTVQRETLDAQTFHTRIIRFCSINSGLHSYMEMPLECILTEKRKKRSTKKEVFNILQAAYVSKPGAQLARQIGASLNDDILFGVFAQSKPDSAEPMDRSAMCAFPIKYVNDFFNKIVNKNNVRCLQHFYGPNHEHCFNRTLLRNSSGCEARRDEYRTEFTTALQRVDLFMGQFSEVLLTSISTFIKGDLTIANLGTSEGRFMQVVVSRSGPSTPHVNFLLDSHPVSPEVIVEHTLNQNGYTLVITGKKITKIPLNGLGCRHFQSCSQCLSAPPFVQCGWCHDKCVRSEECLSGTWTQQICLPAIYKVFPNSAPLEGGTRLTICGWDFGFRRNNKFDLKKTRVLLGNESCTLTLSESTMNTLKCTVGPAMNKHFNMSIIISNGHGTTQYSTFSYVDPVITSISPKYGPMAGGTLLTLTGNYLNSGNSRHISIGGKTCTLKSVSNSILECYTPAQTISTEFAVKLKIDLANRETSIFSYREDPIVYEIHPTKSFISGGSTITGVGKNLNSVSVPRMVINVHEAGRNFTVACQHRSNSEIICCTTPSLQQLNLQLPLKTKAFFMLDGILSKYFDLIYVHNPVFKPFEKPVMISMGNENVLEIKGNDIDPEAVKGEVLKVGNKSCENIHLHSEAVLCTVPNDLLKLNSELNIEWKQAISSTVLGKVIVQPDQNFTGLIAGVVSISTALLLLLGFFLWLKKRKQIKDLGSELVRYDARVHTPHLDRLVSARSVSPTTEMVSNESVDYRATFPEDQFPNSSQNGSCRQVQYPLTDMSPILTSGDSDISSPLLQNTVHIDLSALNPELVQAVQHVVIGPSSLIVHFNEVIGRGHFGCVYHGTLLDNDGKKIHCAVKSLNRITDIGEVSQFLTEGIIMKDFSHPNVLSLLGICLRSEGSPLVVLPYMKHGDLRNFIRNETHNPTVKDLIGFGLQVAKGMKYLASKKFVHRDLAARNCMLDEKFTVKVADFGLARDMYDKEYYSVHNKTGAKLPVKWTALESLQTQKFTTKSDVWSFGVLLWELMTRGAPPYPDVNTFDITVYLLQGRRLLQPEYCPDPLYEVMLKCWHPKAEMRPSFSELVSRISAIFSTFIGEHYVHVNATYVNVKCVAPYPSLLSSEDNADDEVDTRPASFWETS
# [10] = system: Hepatocyte growth factor receptor (Homo sapiens), P08581 [Y1235D]; assay: as §1; format: cell-based; settings: at 1 µM
# [11] = target: Hepatocyte growth factor receptor (Homo sapiens, UniProt P08581); assay: as §1; format: cell-based; settings: at 1 µM
# [12] = target: Glycogen synthase kinase-3 alpha (Homo sapiens, UniProt P49840); assay: Selectivity interaction (Kinase counterscreening (biochemical assay)) EUB0000604a GSK3A
# Sequence of Glycogen synthase kinase-3 alpha (P49840 whole entry): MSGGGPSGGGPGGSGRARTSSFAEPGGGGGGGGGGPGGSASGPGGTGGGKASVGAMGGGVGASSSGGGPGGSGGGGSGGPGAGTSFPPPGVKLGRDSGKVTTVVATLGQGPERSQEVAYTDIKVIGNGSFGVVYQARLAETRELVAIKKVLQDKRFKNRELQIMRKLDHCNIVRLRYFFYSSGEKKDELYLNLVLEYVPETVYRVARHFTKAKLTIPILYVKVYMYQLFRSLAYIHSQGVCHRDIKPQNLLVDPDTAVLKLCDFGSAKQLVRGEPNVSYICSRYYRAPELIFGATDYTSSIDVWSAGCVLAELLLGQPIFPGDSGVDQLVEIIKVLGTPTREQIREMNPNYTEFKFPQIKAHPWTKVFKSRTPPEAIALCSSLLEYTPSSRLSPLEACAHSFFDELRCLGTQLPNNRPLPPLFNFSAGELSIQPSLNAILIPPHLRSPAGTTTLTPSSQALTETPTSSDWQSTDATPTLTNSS
# [13] = target: Tyrosine-protein kinase CSK (Homo sapiens) (UniProt P41240); assay: Selectivity interaction (KinomeScan (DiscoverX)) EUB0001619a CSK; settings: at 1 µM
# Sequence of Tyrosine-protein kinase CSK (Homo sapiens) (P41240 2-450 limits assumed): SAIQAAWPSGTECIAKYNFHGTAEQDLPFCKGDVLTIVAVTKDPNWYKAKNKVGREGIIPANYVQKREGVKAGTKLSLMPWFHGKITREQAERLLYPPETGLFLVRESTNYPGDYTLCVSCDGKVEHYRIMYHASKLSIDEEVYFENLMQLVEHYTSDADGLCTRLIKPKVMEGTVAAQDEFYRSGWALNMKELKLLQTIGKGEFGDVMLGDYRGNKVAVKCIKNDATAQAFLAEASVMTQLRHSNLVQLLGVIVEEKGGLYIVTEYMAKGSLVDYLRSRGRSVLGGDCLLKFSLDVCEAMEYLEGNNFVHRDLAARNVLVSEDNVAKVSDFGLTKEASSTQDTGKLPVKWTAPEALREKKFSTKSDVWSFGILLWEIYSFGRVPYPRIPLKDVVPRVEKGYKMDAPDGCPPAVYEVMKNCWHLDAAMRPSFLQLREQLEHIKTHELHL
smiles,measurement,setting,value
CCN(CC)CCCCNc1ncc2cc(-c3cc(OC)cc(OC)c3)c(NC(=O)NC(C)(C)C)nc2n1,% of control,[1],100%
COc1cc(N(C)c2ccnc3ccc(C(F)(F)F)cc23)cc(OC)c1OC,% binding,[2],94%
CN(C)CCOc1ccc(-c2nc(-c3ccncc3)c(-c3ccc4c(c3)CC/C4=N\O)[nH]2)cc1,% of control,Insulin receptor,100%
Nc1cnc(N2CCc3cc(S(=O)(=O)Nc4c(F)cc(Cl)cc4F)cc(N4CCCC4=O)c32)nc1 [TP-020n],% of control,[3],100%
O=C(NOC[C@H](O)CO)c1ccc(F)c(F)c1Nc1ccc(I)cc1F,% of control,[4],84%
CCC(=O)N1CC[C@H](Nc2ncnc3c2CN(c2cnc(OC)c(C(F)(F)F)c2)CC3)C1 [LENIOLISIB],IC50,[5],> 10000 nM
CC[C@@H]1[C@H](F)C(=O)N[C@@H]1COc1nccc2cc(C(N)=O)c(OC)cc12 [ZIMLOVISERTIB],% of inhibition,[6],2.21%
CNC(=O)Nc1ccc(-c2nc(N3CC4CCC(C3)O4)c3cnn(C4CCC5(CC4)OCCO5)c3n2)cc1,% of control,[7],46%
COCC(=O)NC/C=C/c1ccc2ncnc(Nc3ccc(Oc4ccc(C)nc4)c(C)c3)c2c1 [CP-724714],% of control,[8],0.2%
CN(C)C/C=C/C(=O)Nc1ccc(C(=O)N2CCCC(Nc3ncc(Cl)c(-c4c[nH]c5ccccc45)n3)C2)cc1 (centres undefined),% of control,[9],69%
same,% of control,[10],69%
same,% of control,[11],84%
Cc1cnc(Nc2ccc(F)cc2Cl)nc1-c1c[nH]c(C(=O)N[C@H](CO)c2cccc(Cl)c2)c1,Ki,[12],400 nM
N#Cc1cccc(-c2c[nH]c3ncnc(N4CCOCC4)c23)c1,% of control,[13],96%
